# Source: the kinase profiling compilation of Christmann-Franck et al. (2016)
# Tests used:
# Assay in all cases: KINOMEscan competition binding
# Settings in all cases: compound 10.0 µM
# CIT (human) = CIT (human) (UniProt O14578)
# PKN2 (human) = PKN2 (human) (UniProt Q16513)
# PIK3CD (human) = PIK3CD (human) (UniProt O00329)
# PIM2 (human) = PIM2 (human) (UniProt Q9P1W9)
# MUSK (human) = MUSK (human) (UniProt O15146)
# MARK3 (human) = MARK3 (human) (UniProt P27448)
# ANKK1 (human) = ANKK1 (human) (UniProt Q8NFD2)
# STK35 (human) = STK35 (human) (UniProt Q8TDR2)
# ACVR2B (human) = ACVR2B (human) (UniProt Q13705)
# NEK1 (human) = NEK1 (human) (UniProt Q96PY6)
# MAPK11 (human) = MAPK11 (human) (UniProt Q15759)
# SIK1 (human) = SIK1 (human) (UniProt P57059)
# AXL (human) = AXL (human) (UniProt P30530)
# [1] = tested on: BRAF (human), P15056 [V600E]
# IRAK3 (human) = IRAK3 (human) (UniProt Q9Y616)
# MAPK7 (human) = MAPK7 (human) (UniProt Q13164)
# EPHA3 (human) = EPHA3 (human) (UniProt P29320)
# ROCK2 (human) = ROCK2 (human) (UniProt O75116)
# CSNK2A1 (human) = CSNK2A1 (human) (UniProt P68400)
# TLK2 (human) = TLK2 (human) (UniProt Q86UE8)
# GAK (human) = GAK (human) (UniProt O14976)
# CSNK1G1 (human) = CSNK1G1 (human) (UniProt Q9HCP0)
# ACVRL1 (human) = ACVRL1 (human) (UniProt P37023)
# CDK2 (human) = CDK2 (human) (UniProt P24941)
# ABL2 (human) = ABL2 (human) (UniProt P42684)
# [2] = tested on: LRRK2 (human), Q5S007 [G2019S]
# CSNK1A1L (human) = CSNK1A1L (human) (UniProt Q8N752)
# CDK5 (human) = CDK5 (human) (UniProt Q00535)
# BMP2K (human) = BMP2K (human) (UniProt Q9NSY1)
# SIK2 (human) = SIK2 (human) (UniProt Q9H0K1)
# [3] = tested on: EGFR (human), P00533 [L858R]
# CSNK1E (human) = CSNK1E (human) (UniProt P49674)
# MAST1 (human) = MAST1 (human) (UniProt Q9Y2H9)
# PRPF4B (human) = PRPF4B (human) (UniProt Q13523)
# MAP2K1 (human) = MAP2K1 (human) (UniProt Q02750)
# CDK4 CCND3 (human) = CDK4 CCND3 (human) (UniProt P11802+P30281)
# MYLK4 (human) = MYLK4 (human) (UniProt Q86YV6)
# HIPK3 (human) = HIPK3 (human) (UniProt Q9H422)
# VRK2 (human) = VRK2 (human) (UniProt Q86Y07)
# SYK (human) = SYK (human) (UniProt P43405)
# MAP2K4 (human) = MAP2K4 (human) (UniProt P45985)
# Sequence of MAP2K4 (human) (P45985 whole entry, looked up): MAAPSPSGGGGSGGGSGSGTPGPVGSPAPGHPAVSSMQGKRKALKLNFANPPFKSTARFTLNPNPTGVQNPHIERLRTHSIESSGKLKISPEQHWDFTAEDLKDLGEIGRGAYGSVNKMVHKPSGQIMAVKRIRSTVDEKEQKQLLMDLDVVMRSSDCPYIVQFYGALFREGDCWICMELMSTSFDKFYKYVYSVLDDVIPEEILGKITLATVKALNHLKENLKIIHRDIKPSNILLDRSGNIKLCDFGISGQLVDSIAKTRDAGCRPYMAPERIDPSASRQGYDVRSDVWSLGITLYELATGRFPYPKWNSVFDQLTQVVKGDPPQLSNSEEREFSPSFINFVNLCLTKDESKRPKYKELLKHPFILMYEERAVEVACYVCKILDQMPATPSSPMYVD
# Sequence of IRAK3 (human) (Q9Y616 whole entry, looked up): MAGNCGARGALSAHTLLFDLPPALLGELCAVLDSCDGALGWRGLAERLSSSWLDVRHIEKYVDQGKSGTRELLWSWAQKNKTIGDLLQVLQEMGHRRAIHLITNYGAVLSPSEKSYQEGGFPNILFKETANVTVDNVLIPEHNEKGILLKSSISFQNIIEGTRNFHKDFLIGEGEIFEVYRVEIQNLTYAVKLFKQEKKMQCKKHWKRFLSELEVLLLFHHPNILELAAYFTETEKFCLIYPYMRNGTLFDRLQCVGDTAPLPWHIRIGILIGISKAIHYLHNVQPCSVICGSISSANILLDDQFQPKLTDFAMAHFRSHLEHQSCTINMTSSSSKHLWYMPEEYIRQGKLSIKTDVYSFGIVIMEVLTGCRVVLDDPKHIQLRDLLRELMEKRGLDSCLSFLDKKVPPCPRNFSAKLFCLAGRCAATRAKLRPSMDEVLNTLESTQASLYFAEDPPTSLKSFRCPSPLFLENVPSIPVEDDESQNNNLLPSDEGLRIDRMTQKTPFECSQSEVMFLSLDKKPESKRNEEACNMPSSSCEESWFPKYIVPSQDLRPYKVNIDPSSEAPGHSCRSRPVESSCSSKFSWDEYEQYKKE
# Sequence of ABL2 (human) (P42684 whole entry, looked up): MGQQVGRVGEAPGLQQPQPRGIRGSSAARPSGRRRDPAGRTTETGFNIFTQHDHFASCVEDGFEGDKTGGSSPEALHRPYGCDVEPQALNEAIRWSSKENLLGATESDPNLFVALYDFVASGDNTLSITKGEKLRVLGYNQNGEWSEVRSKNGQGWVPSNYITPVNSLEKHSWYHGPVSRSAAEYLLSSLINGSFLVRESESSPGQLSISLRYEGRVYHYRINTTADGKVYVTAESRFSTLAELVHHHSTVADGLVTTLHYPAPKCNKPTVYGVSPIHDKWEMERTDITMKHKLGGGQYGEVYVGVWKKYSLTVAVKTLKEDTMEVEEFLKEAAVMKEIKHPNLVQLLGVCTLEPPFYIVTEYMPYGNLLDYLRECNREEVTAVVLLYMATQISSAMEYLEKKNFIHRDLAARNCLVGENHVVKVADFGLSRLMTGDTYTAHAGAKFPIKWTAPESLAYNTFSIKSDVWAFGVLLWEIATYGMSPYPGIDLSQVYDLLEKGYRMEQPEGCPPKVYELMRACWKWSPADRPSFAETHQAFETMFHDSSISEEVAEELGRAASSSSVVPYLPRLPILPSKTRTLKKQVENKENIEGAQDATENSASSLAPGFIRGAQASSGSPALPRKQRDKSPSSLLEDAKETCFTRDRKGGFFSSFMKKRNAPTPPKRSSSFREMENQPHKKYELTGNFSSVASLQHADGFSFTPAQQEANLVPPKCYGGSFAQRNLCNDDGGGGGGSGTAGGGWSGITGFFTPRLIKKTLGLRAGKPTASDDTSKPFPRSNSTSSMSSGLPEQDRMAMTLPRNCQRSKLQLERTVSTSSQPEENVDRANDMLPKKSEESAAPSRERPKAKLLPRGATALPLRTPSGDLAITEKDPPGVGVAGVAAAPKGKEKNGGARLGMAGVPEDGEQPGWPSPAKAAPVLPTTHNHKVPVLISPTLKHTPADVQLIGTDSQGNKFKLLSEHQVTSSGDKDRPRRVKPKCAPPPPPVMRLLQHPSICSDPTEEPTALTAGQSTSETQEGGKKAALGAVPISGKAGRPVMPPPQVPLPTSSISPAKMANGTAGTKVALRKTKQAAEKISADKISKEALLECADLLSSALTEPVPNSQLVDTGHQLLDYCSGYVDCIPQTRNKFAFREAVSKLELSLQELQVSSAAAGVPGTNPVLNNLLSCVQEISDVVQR
# Sequence of HIPK3 (human) (Q9H422 whole entry, looked up): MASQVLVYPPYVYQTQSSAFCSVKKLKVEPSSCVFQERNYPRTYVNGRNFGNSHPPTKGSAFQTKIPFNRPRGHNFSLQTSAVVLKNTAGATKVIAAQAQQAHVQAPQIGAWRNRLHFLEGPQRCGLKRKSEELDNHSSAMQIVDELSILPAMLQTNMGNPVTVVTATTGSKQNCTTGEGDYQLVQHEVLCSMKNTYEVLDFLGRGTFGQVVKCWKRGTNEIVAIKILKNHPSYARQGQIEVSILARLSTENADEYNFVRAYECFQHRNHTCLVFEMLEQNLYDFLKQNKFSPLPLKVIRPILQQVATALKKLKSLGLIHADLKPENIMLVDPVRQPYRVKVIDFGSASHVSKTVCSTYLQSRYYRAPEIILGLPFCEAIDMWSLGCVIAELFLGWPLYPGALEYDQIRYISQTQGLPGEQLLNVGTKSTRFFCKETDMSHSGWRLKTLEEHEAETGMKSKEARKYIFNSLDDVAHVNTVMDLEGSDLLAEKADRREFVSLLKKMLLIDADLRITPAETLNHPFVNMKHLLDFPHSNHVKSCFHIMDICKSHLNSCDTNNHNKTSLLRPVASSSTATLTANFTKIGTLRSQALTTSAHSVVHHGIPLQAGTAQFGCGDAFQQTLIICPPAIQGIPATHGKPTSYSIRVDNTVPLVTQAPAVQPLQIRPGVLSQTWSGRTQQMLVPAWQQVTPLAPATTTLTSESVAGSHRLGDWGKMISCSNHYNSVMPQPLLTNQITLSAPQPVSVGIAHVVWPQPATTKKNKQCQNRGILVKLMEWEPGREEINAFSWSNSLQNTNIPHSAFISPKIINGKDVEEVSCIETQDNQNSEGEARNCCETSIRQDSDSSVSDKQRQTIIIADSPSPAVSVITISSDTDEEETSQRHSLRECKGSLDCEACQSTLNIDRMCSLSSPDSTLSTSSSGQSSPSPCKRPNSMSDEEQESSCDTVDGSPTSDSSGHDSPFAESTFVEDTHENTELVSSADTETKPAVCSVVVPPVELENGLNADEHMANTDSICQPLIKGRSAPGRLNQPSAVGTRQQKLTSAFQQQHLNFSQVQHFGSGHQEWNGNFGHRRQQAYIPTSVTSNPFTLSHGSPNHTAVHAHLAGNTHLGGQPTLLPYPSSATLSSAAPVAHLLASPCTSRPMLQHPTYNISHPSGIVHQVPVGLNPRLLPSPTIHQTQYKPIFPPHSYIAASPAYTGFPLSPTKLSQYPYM
# Sequence of STK35 (human) (Q8TDR2 whole entry, looked up): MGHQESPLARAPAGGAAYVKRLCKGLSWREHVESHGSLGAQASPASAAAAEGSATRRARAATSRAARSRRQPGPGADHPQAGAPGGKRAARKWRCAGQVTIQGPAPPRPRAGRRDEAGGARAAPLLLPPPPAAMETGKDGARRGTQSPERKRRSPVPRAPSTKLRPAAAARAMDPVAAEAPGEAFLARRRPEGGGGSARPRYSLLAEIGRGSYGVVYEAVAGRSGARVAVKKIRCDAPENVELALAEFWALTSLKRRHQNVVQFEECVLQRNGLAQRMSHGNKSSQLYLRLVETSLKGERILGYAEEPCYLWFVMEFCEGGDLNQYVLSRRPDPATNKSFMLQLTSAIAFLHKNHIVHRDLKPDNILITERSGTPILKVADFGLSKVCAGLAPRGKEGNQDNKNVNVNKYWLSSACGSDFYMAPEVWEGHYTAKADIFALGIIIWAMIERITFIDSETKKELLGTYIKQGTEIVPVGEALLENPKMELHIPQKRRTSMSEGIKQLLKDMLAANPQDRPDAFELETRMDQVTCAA
# Sequence of CSNK2A1 (human) (P68400 whole entry, looked up): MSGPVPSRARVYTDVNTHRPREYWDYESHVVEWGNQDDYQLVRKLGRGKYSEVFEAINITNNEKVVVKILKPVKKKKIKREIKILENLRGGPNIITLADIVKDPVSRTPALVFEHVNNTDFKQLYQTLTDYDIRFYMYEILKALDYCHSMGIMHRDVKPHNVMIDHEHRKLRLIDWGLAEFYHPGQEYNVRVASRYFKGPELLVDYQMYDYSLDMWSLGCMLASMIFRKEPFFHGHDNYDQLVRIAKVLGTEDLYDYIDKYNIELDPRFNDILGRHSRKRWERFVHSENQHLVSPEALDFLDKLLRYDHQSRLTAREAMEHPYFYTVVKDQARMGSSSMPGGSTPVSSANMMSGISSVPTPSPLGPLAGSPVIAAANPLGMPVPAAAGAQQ
# Sequence of MAPK11 (human) (Q15759 whole entry, looked up): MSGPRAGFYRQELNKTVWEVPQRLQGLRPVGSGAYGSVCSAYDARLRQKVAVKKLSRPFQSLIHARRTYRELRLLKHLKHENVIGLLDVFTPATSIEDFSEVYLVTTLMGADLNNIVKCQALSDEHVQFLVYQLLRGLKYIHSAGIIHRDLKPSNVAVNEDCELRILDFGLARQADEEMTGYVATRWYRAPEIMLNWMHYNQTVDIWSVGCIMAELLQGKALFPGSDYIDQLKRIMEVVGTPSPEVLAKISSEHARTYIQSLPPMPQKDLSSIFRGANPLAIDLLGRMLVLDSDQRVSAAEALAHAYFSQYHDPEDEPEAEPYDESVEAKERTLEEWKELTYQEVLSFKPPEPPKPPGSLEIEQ
# Sequence of PIM2 (human) (Q9P1W9 whole entry, looked up): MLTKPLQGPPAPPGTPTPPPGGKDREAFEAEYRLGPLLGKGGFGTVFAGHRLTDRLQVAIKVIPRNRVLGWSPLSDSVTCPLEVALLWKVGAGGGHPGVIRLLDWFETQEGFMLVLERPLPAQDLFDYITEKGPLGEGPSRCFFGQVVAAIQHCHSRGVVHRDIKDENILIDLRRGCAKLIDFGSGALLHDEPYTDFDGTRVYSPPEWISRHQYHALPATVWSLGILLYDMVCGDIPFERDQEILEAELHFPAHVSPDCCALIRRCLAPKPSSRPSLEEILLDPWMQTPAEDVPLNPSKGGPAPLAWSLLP
smiles,measurement,setting,value
COC(=O)Nc1ccc(-c2nc(N3CCOCC3)c3cnn(C4CCN(C(=O)OC)CC4)c3n2)cc1,"kinase still bound, per cent of control",CIT (human),98%
same,"kinase still bound, per cent of control",PKN2 (human),100%
same,"kinase still bound, per cent of control",PIK3CD (human),40%
same,"kinase still bound, per cent of control",PIM2 (human),100%
same,"kinase still bound, per cent of control",MUSK (human),100%
same,"kinase still bound, per cent of control",MARK3 (human),100%
same,"kinase still bound, per cent of control",ANKK1 (human),97%
same,"kinase still bound, per cent of control",STK35 (human),91%
same,"kinase still bound, per cent of control",ACVR2B (human),100%
same,"kinase still bound, per cent of control",NEK1 (human),77%
same,"kinase still bound, per cent of control",MAPK11 (human),80%
same,"kinase still bound, per cent of control",SIK1 (human),100%
same,"kinase still bound, per cent of control",AXL (human),100%
same,"kinase still bound, per cent of control",[1],81%
same,"kinase still bound, per cent of control",IRAK3 (human),79%
same,"kinase still bound, per cent of control",MAPK7 (human),100%
same,"kinase still bound, per cent of control",EPHA3 (human),84%
same,"kinase still bound, per cent of control",ROCK2 (human),79%
same,"kinase still bound, per cent of control",CSNK2A1 (human),62%
same,"kinase still bound, per cent of control",TLK2 (human),96%
same,"kinase still bound, per cent of control",GAK (human),94%
same,"kinase still bound, per cent of control",CSNK1G1 (human),100%
same,"kinase still bound, per cent of control",ACVRL1 (human),100%
same,per cent of control,CDK2 (human),91%
same,"kinase still bound, per cent of control",ABL2 (human),100%
same,"kinase still bound, per cent of control",[2],80%
same,"kinase still bound, per cent of control",CSNK1A1L (human),91%
same,per cent of control,CDK5 (human),100%
same,"kinase still bound, per cent of control",BMP2K (human),99%
same,"kinase still bound, per cent of control",SIK2 (human),100%
same,"kinase still bound, per cent of control",[3],100%
same,"kinase still bound, per cent of control",CSNK1E (human),72%
same,"kinase still bound, per cent of control",MAST1 (human),81%
same,"kinase still bound, per cent of control",PRPF4B (human),100%
same,"kinase still bound, per cent of control",MAP2K1 (human),100%
same,per cent of control,CDK4 CCND3 (human),100%
same,"kinase still bound, per cent of control",MYLK4 (human),99%
same,"kinase still bound, per cent of control",HIPK3 (human),72%
same,"kinase still bound, per cent of control",VRK2 (human),100%
same,"kinase still bound, per cent of control",SYK (human),83%
same,"kinase still bound, per cent of control",MAP2K4 (human),74%
